Data on 2 molecules can be found in patent US20180362543A1, “HIV REPLICATION INHIBITOR” (Shionogi & Co., Ltd., priority 2013, published 2018).

In one series the test system is HIV (HTLV-III B strain). Kind of series: HIV replication inhibition assay (MTT, MT-4 cells). Format: cell-based. Conditions: 4 days culture, concentration at which cell cytotoxicity by virus is inhibited 50%. In a few lines: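 MT-4 cells (2.5×10^4/well) infected with HTLV-III B stock (60 pfu) in presence of compound, cultured four days at 37 °C. Viability by MTT reduction, formazan read at 560 and 690 nm. EC50 is concentration inhibiting virus-induced cytotoxicity by 50%.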

The target in series [1] is T1, human ether-a-go-go related gene (hERG) channel (Homo sapiens, UniProt Q12809).
T1 construct: expressed in transfected cells; host or cells: HEK293
T1 sequence (Q12809 whole entry): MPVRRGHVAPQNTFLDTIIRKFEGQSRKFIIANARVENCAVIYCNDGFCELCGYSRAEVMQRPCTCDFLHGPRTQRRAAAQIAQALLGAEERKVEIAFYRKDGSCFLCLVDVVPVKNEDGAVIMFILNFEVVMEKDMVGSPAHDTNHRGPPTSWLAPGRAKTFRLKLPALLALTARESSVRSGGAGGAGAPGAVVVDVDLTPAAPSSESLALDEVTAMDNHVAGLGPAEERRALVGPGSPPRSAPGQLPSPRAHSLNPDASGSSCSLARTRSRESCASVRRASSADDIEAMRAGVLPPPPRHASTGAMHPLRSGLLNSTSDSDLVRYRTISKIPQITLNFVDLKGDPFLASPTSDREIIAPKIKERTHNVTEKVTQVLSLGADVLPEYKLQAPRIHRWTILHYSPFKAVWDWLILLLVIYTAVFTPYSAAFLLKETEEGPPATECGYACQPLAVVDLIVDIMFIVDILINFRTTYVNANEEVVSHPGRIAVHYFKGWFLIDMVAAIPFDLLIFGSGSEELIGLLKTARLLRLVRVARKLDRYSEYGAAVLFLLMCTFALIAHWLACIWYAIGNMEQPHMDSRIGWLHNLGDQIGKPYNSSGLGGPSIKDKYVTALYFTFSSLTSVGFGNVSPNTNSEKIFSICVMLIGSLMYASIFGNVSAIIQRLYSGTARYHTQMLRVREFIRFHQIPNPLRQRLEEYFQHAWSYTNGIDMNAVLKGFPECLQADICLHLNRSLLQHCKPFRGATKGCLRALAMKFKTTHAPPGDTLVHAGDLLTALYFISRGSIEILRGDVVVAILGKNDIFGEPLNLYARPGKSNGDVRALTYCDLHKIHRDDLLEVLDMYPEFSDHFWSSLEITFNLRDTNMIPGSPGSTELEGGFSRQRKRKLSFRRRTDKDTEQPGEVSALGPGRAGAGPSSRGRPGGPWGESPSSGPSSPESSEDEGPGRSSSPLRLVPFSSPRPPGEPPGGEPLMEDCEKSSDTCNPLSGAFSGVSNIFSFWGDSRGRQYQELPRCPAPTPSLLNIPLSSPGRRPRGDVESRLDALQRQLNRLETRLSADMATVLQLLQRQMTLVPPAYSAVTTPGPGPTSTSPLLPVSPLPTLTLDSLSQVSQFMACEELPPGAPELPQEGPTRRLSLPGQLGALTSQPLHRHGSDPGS
Nature of the series: hERG test (whole cell patch clamp, IKr). To be noted: HEK293 cells expressing hERG channel, concentration not given. Format: cell-based. The source says:
For the purpose of assessing risk of an electrocardiogram QT interval prolongation, effects on delayed rectifier K+ current (IKr), which plays an important role in the ventricular repolarization process of the compound of the present invention, was studied using HEK293 cells expressing human ether-a-go-go related gene (hERG) channel.
After a cell was retained at a membrane potential of −80 mV by whole cell patch clamp method using an automated patch clamp system (PatchXpress 7000A, Axon Instruments Inc.), IKr induced by depolarization pulse stimulation at +40 mV for 2 seconds and, further, repolarization pulse stimulation at −50 mV for 2 seconds was recorded. […] From the recording IKr, an absolute value of the tail peak current was measured based on the current value at the resting membrane potential using an analysis software (DataXpress ver. 1, Molecular Devices Corporation). Further, the inhibition relative to the tail peak current before application of the test substance was calculated, and compared with the vehicle-applied group (0.1% dimethyl sulfoxide solution) to assess influence of the test substance on IKr.
Background: hERG is a cardiac potassium channel; its block is linked to QT prolongation.

A short description of series [2]: Solubility test (1% DMSO, artificial intestinal juice pH 6.8). Format: physicochemical. Conditions: pH 6.8, 1% DMSO, 16 hours at 25° C. As to the method:
The solubility of each compound was determined under 1% DMSO addition conditions. A 10 mmol/L solution of the compound was prepared with DMSO, and 6 μL of the solution was added to 594 μL of an artificial intestinal juice (:water and a 118 mL solution of 0.2 mol/L NaOH reagent are added to 250 mL of 0.2 mol/L potassium dihydrogen phosphate reagent to reach 1000 mL) with a pH of 6.8. The mixture is left standing for 16 hours at 25° C., and the mixture is vacuum-filtered. The filtrate is two-fold diluted with methanol/water=1/1 (v/v), and the compound concentration in the filtrate is measured with HPLC or LC/MS/MS by the absolute calibration method.

Series [3] relates to Salmonella typhimurium TA98 strain, TA100 strain. To be noted: Salmonella typhimurium TA98 and TA100, with and without metabolism activating condition. As for the experimental part: The mutagenicity of the compound of the present invention was assayed.
20 μL of freezing-stored rat typhoid bacillus (Salmonella typhimurium TA98 strain, TA100 strain) was inoculated on 10 mL of a liquid nutrient medium (2.5% Oxoid nutrient broth No. 2), and this was cultured before shaking at 37° C. for 10 hours. 9 mL of a bacterial solution of the TA98 strain was centrifuged (2000×g, 10 minutes) to remove a culturing solution. The bacteria was suspended in F buffer (K2HPO4: 3.5 g/L, KH2PO4: 1 g/L, (NH4)2SO4: 1 g/L, trisodium citrate dehydrate: 0.25 g/L, MgSO4.7H2O: 0.1 g/L), and the suspension was added to 110 mL of an Exposure medium (Micro F buffer containing Biotin: 8 μg/mL, histidine: 0.2 μg/mL, glucose: 8 mg/mL). The TA100 strain was added to 120 mL of the Exposure medium per 3.16 mL of the bacterial solution to prepare a test bacterial solution. […] Since a well containing a bacterium which has obtained the proliferation ability by mutation of an amino acid (histidine) synthesizing enzyme gene turns from purple to yellow due to a pH change, the bacterium proliferation well which has turned to yellow in 48 wells per dose is counted, and was assessed by comparing with a negative control group. […]

The format of series [4] is in vitro ADME. To be noted: 0 h.
The target of another series is T2, CYP1A2 (Homo sapiens, UniProt P05177).
T2 construct: enzyme, pooled human hepatic microsome 0.2 mg protein/mL; from tissue; host or cells: pooled human liver microsomes
T2 sequence (P05177 1-516): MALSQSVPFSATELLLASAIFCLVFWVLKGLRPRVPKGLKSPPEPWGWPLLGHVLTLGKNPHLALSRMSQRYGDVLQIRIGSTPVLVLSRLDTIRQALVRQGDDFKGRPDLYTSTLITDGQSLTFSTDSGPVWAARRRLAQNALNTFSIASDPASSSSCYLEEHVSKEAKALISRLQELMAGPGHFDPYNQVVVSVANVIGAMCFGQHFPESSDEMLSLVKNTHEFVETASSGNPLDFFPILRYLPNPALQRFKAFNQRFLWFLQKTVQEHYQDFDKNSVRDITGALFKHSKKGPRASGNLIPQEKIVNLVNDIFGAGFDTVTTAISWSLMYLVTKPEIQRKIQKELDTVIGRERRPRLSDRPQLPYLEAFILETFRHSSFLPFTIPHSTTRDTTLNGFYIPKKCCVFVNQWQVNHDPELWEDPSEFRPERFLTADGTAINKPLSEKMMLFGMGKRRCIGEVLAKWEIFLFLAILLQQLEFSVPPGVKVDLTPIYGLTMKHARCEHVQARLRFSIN
Kind of series: CYP inhibition assay, CYP1A2 (7-ethoxyresorufin O-deethylation). Format: in vitro ADME. Conditions: pooled human hepatic microsome, 15 minutes, 37° C. As for the experimental part:
(§1) Using commercially available pooled human hepatic microsome, and employing, as markers, 7-ethoxyresorufin O-deethylation (CYP1A2), tolbutamide methyl-hydroxylation (CYP2C9), mephenytoin 4′-hydroxylation (CYP2C19), dextromethorphan O-demethylation (CYP2D6), and terfenedine hydroxylation (CYP3A4) as typical substrate metabolism reactions of human main five CYP enzyme forms (CYP1A2, 2C9, 2C19, 2D6, 3A4), an inhibitory degree of each metabolite production amount by a test compound was assessed. […]
(§2) Each five kinds of substrates, human hepatic microsome, and a test drug in 50 mmol/L Hepes buffer as a reaction solution was added to a 96-well plate as the composition as described above, NADPH, as a cofactor was added to initiate metabolism reactions as markers and, after the incubation at 37° C. for 15 minutes, a methanol/acetonitrile=1/1 (v/v) solution was added to stop the reaction. After the centrifugation at 3000 rpm for 15 minutes, resorufin (CYP1A2 metabolite) in the supernatant was quantified by a fluorescent multilabel counter and tolbutamide hydroxide (CYP2C9 metabolite), mephenytoin 4′ hydroxide (CYP2C19 metabolite), dextrorphan (CYP2D6 metabolite), and terfenadine alcohol (CYP3A4 metabolite) were quantified by LC/MS/MS. […]

The next series has as its target T3, CYP2C19 (Homo sapiens, UniProt P33261).
T3 construct: enzyme, pooled human hepatic microsome 0.2 mg protein/mL; from tissue; host or cells: pooled human liver microsomes
Nature of the series: CYP inhibition assay, CYP2C19 (mephenytoin 4'-hydroxylation). To be noted: pooled human hepatic microsome, 15 minutes, 37° C. Format: in vitro ADME. As to the method:
as §1, §2

A further series has as its target T4, CYP3A4 (Homo sapiens, UniProt P08684).
T4 construct: enzyme, pooled human hepatic microsome 0.2 mg protein/mL; from tissue; host or cells: pooled human liver microsomes
Nature of the series: CYP inhibition assay, CYP3A4 (terfenedine hydroxylation). Format: in vitro ADME. To be noted: pooled human hepatic microsome, 15 minutes, 37° C. As for the experimental part:
as §1, §2

Another series concerns the target T5, CYP2D6 (Homo sapiens, UniProt P10635).
T5 construct: enzyme, pooled human hepatic microsome 0.2 mg protein/mL; from tissue; host or cells: pooled human liver microsomes
Nature of the series: CYP inhibition assay, CYP2D6 (dextromethorphan O-demethylation). Format: in vitro ADME. Conditions: pooled human hepatic microsome, 15 minutes, 37° C. As to the method: as §1, §2

The structures appear in SMILES notation.

T5 sequence (P10635 whole entry): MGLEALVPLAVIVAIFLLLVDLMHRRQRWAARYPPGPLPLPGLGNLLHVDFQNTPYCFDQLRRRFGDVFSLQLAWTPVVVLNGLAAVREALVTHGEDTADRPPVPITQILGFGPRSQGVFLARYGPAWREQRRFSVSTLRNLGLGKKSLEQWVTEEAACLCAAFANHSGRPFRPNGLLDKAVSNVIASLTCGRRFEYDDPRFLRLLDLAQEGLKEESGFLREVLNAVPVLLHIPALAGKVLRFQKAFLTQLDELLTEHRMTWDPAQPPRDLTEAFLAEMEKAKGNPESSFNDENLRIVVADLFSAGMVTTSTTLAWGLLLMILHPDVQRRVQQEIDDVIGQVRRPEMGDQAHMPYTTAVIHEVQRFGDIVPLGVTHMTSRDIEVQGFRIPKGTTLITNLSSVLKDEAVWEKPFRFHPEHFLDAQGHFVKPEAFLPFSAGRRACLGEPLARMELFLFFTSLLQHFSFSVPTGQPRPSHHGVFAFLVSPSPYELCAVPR
T3 sequence (P33261 whole entry): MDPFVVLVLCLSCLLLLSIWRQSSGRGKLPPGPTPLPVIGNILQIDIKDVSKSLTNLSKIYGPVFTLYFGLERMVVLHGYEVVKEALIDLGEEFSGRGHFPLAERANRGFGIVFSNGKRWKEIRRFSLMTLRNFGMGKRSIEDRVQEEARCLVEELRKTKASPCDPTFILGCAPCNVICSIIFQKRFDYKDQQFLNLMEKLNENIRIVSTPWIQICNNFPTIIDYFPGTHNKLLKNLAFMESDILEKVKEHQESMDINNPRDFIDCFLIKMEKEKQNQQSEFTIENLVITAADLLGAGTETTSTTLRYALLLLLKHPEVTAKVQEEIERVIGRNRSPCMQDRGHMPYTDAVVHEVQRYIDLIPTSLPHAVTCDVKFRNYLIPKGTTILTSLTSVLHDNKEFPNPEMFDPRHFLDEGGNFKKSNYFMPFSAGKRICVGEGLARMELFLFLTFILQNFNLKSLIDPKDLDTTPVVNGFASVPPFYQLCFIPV
T4 sequence (P08684 whole entry): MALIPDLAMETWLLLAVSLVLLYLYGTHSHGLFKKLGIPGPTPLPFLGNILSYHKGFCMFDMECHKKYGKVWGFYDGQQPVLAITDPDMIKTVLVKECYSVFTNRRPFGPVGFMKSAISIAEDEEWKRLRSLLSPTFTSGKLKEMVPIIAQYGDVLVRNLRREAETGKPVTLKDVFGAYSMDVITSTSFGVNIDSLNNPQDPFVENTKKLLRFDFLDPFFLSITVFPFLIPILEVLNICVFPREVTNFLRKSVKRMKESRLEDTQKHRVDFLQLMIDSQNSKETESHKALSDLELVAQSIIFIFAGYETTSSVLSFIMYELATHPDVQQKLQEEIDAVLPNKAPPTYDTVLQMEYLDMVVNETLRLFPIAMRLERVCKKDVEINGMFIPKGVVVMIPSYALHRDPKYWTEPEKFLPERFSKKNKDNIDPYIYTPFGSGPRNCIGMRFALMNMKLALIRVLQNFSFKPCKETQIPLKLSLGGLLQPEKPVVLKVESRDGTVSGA

With `Cc1c2c(c(C)c(C(OC(C)(C)C)C(=O)O)c1-c1ccc3c(c1)CCCO3)NC(=O)N(Cc1ccccc1)C2` (stereo not shown) [Compound 7], a half-maximal effect with HIV (HTLV-III B strain) (EC50) was put at 9.6 nM. Moreover, in series [1], the “inhibition ratio (hERG, IKr tail peak current)” value is reported as 2.6%.
Consider `Cc1c(-c2c(C)c3c(c(C)c2[C@H](OC(C)(C)C)C(=O)O)NS(=O)(=O)Cc2ccccc2-3)ccc2c1CCCO2` [Compound 10], for which the “solubility in the artificial intestinal juice” value in [2] is not below 50 µM. Also, it took 2.4 nM to reach a half-maximal effect in the series on HIV (HTLV-III B strain) (EC50). The mutagenicity result in series [3] is recorded as “negative”. The “remaining amount of compound in liver microsomes of rat” value in series [4] is 91%. In addition, the IC50 against CYP1A2, at CYP2C19, on CYP3A4 and against CYP2D6 was not below 20 µM in each case.
